The text below walks through data of the supplement of paper PMC10307832.

What all share (assay): relative viability (nuclei count vs DMSO), 5 days (fraction); higher = more cells survive
Compound in the experiment “RO-3306 + Tozasertib”: C1=CC2=C(C=CC(=C2)C=C3C(=O)NC(=NCC4=CC=CS4)S3)N=C1 [RO-3306] + Cc1cc(Nc2cc(N3CCN(C)CC3)nc(Sc3ccc(NC(=O)C4CC4)cc3)n2)n[nH]1 [Tozasertib] (partner 0.1 µM)
Put shortly:
(§1)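 Medians of duplicate plates are given as relative viability. That measure is the nuclei count in treated wells divided by the count in vehicle wells. Counts were taken on 4× images of lung cancer cell lines in 1536-well plates, 5 days after pin-tool dosing the day after seeding with one drug alone or a fixed anchor-drug dose plus five library-drug doses (not always all listed) in √10 steps.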

Compound in experiment [1]: O=S(=O)(c1ccccc1)N(CC(F)(F)F)c1ccc(C(O)(C(F)(F)F)C(F)(F)F)cc1 + O=C(c1cc(Cc2n[nH]c(=O)c3ccccc23)ccc1F)N1CCN(C(=O)C2CC2)CC1 [Olaparib] (partner 8 µM)
Put shortly: as §1

Compound in the experiment “RO-3306 + Luminespib”: C1=CC2=C(C=CC(=C2)C=C3C(=O)NC(=NCC4=CC=CS4)S3)N=C1 [RO-3306] + CCNC(=O)c1noc(-c2cc(C(C)C)c(O)cc2O)c1-c1ccc(CN2CCOCC2)cc1 [Luminespib] (partner 0.01 µM)
Put shortly: as §1

Compound in experiment [2]: O=S(=O)(c1ccccc1)N(CC(F)(F)F)c1ccc(C(O)(C(F)(F)F)C(F)(F)F)cc1 + C[C@@H](Oc1cc(-c2cnn(C3CCNCC3)c2)cnc1N)c1c(Cl)ccc(F)c1Cl [Crizotinib] (partner 1 µM)
Put shortly:
as §1

Compound in experiment [3]: O=S(=O)(c1ccccc1)N(CC(F)(F)F)c1ccc(C(O)(C(F)(F)F)C(F)(F)F)cc1 + CC1(C)CCC(c2ccc(Cl)cc2)=C(CN2CCN(c3ccc(C(=O)NS(=O)(=O)c4ccc(N[C@H](CCN5CCOCC5)CSc5ccccc5)c(S(=O)(=O)C(F)(F)F)c4)cc3)CC2)C1 [Navitoclax] (partner 0.5 µM)
Put shortly:
as §1

For UMC-11, the relative viability was found to be 0.174 with RO-3306 + Tozasertib (first compound 0.01 µM); 0.225 with RO-3306 + Tozasertib (first compound 0.03162 µM); 0.199 in the experiment with RO-3306 + Tozasertib (first compound 0.1 µM); 0.213 with RO-3306 + Tozasertib (first compound 0.3162 µM); 0.194 with RO-3306 + Tozasertib (first compound 1 µM); 0.355 in experiment [1] (first compound 0.8 µM). The relative viability in experiment [1] (first compound 2.53 µM) was 0.459; in experiment [1] (first compound 8 µM), 0.379; in the experiment with RO-3306 + Luminespib (first compound 0.01 µM), 0.955; with RO-3306 + Luminespib (first compound 0.03162 µM), 0.908; in the experiment with RO-3306 + Luminespib (first compound 0.1 µM), 1.05; with RO-3306 + Luminespib (first compound 0.3162 µM) it was 1.08. For the same cell line, the relative viability with RO-3306 + Luminespib (first compound 1 µM) was 1.06; in experiment [2] (first compound 0.8 µM) it was 0.585; in experiment [2] (first compound 2.53 µM) it was 0.583; in experiment [2] (first compound 8 µM), 0.749; in experiment [3] (first compound 0.8 µM), 0.335; in experiment [3] (first compound 2.53 µM), 0.352. Also, in experiment [3] (first compound 8 µM), the relative viability worked out at 0.37.
